Experimental data from patent US20070269830A1, “Process for the Identification of New Medical Targets” (priority 2003, published 2007).

Tests used:
[1] = target: T1, E. coli expressed His-tagged human carbonyl reductase (CBR1) (Homo sapiens, UniProt P16152); experiment: carbonyl reductase activity assay (NADPH oxidation with menadione), recombinant enzyme; assay type: biochemical; conditions: rate without benserazide 24.0
T1 construct: His; made in house; host or cells: E. coli
T1 sequence (P16152 1-277): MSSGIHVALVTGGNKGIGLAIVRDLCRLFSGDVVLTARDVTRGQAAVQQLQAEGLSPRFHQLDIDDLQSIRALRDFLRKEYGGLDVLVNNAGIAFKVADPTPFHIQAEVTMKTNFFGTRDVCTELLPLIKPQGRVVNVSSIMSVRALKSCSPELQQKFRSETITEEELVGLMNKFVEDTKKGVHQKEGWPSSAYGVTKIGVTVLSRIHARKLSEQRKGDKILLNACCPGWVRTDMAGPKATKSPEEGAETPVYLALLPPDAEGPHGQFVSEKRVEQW
Procedure: (§1) The carbonyl reductase activity was evaluated spectrophotometrically according to the methods of Iwata et al. 1990. Eur. J. Biochem 193, p. 75-81.: Inazu N, Ruepp B., Wirth H., Wermuth B. 1992. BBA, 1116, p. 50-56 and Imamura et al. 1993. Arch. Biochem. Biophys. 300, p. 570-576. The oxidation rate of NADPH was recorded in the presence of the specific substrate menadione at 340 nm at room temperature on a Jenway 6505 UV/VIS Spectrophotometer.
(§2) The standard assay mixture consisted of 100 mM sodium phosphate buffer pH 7.0, 0.12 mM NADPH, 0.25 mM menadione. The reaction was started by adding 5-20 μg of E. coli expressed His-tagged human carbonyl reductase (CBR1) or alternatively by adding 10 μl of mouse live lysate extract (total protein concentration of 15 mg/ml). The total volume of the reaction mixture was 1 ml. The change of the absorbance was monitored at 340 nm.
(§3) The inhibition of carbonyl reductase was determined using the assay described in example 1. In addition to menadione as a substrate, the assay mixture was supplemented with 0, 0.5, 1, 2, 3, 6, or 7.5 mM benserazide. The inhibition experiment performed with mouse liver lysate as well as with recombinant CBR1 in protein supplemented probes.

[2] = test system: carbonyl reductase activity in mouse liver lysate; experiment: carbonyl reductase activity assay (NADPH oxidation with menadione), mouse liver lysate; assay type: biochemical; conditions: rate without benserazide 16.3
Procedure: as §1, §2, §3

[3] = target: T2, Carbonyl Reductase (CBR1) (Mus musculus, UniProt P48758); experiment: drug pulldown assay with immobilized benserazide, mouse liver cell lysate; assay type: binding; conditions: benserazide on NHS-activated beads, mass spectrometry identification
T2 construct: from tissue; host or cells: mouse liver
T2 sequence (P48758 1-277): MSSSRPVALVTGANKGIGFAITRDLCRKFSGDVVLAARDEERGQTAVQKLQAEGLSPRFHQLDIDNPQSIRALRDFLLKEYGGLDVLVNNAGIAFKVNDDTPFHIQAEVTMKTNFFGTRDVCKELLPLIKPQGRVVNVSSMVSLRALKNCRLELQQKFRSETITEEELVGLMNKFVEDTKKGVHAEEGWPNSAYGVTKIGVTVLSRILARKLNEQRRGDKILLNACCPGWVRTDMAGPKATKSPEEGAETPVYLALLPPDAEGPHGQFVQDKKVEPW
Procedure: The compound benserazide was immobilized on NHS-activated beads (Affi Gel 10, BioRad) via its NH2-group. 300 μl of the beads (both with the immobilized. benserazide and control beads) were washed in 10 ml washing buffer A (50 mM Tris, pH 7.5; 0.1 M NaCl, 0.15% lgepal, 1.5 mM MgCl2, 0.1 mM DTT) for 5-10 min at 4° C. and centrifugation for 5 min at 1000 rpm in a Heraeus Varifuge 3 OR).
Mouse liver cell lysate (60-100 mg total protein) and 125 μl 50× protease inhibitor tablets (Roche, Complete, EDTA free) where added to the beads and the suspension was incubated for 1 h at 4° C. (while rotating). The suspension was washed 1-3 × with 10 ml washing buffer B (50 mM Tris, pH 7.5; 0.1 M NaCl, 0.15% lgepal, 1.5 mM MgCl2, 0.1 mM DTT, 1× Protease inhibitor tablet (Complete, EDTA free, Roche)) by rotating the suspension for 5-10 min at 4° C. and centrifugation at 10,000 rpm at 4° C. The beads were transferred to a 1 ml MoBiTec column and connected to a 10 ml syringe. 10 ml washing buffer B were added.
Elution was performed by adding a 5-10 fold excess of the drug relative to the beads capacity. The drug was dissolved in 500 μl washing buffer B and incubated with beads on a rotating platform for 1 h at 4° C. and subsequently eluted in an eppendorf tube. 300 μl of washing buffer B were added to the beads and eluted immediately in the same eppendorf tube. […]

initial rate, carbonyl reductase ([1]; 2 mM benserazide, 0.25 mM menadione, 0.12 mM NADPH): 13.7 nmol/min | initial rate, carbonyl reductase ([1]; 6 mM benserazide): 3.5 nmol/min | initial rate, carbonyl reductase ([1]; 7.5 mM benserazide): 0.3 nmol/min | initial rate, mouse liver lysate ([2]; 0.5 mM benserazide): 12.1 nmol/min | initial rate, mouse liver lysate ([2]; 1 mM benserazide): 8.6 nmol/min | initial rate, mouse liver lysate ([2]; 2 mM benserazide): 1.2 nmol/min | initial rate, mouse liver lysate ([2]; 3 mM benserazide): 1.3 nmol/min | binding of carbonyl reductase (CBR1) to immobilized drug [3]: Identified as a Binding Partner
Compound: NC(CO)C(=O)NNCc1ccc(O)c(O)c1O (centres unmarked) [benserazide]
